According to ChEMBL document CHEMBL1782039, “Discovery of ((1S,3R)-1-isopropyl-3-((3S,4S)-3-methoxy-tetrahydro-2H-pyran-4-ylamino)cyclopentyl)(4-(5-(trifluoromethyl)pyridazin-3-yl)piperazin-1-yl)methanone, PF-4254196, a CCR2 antagonist with an improved cardiovascular profile” (Bioorg Med Chem Lett, 2011):

Experiments:
[1] = Intrinsic clearance in human liver microsomes; assay type: ADME, Microsome
[2] = Lipophilicity, log D of the compound at pH 7.4; assay type: physicochemical; details: buffer
[3] = Bioavailability in rat at 1 mg/kg, po and iv; assay type: ADME, organism-based; details: in vivo
[4] = Half life in rat; assay type: ADME, organism-based; details: in vivo
in vivo = details: rat, brain and plasma
[5] = Blood clearance in rat; assay type: ADME, organism-based; details: whole blood

microsomal CLint [1] [µL/min/mg]	logD [2]	Compound	further results
58	–	CC(C)[C@]1(C(=O)N2CCN(c3cc(C(F)(F)F)cnn3)CC2)CC[C@@H](NC2C3CCCC2COC3)C1 (stereo in doubt; 27)	–
< 7	–	CC(C)[C@]1(C(=O)N2CCN(c3cc(C(F)(F)F)ccn3)CC2)CC[C@@H](N2CCC3COCCC32)C1 (stereo in doubt; 22)	–
< 7	0.5	CO[C@@H]1COCC[C@@H]1N[C@@H]1CC[C@@](C(=O)N2CCN(c3cc(C(F)(F)F)cnn3)CC2)(C(C)C)C1	bioavailability [3]: 50%
58	–	CO[C@@H]1COCC[C@@H]1N(C)[C@@H]1CC[C@@](C(=O)N2CCN(c3cc(C(F)(F)F)ccn3)CC2)(C(C)C)C1	–
< 7	0.7	CO[C@@H]1COCC[C@@H]1N[C@@H]1CC[C@@](C(=O)N2CCN(c3ccnc(C(F)(F)F)c3)CC2)(C(C)C)C1	–

Compound	microsomal CLint [1] [µL/min/mg]	logD [2]	further results
CO[C@@H]1COCC[C@@H]1N[C@@H]1CC[C@@](C(=O)N2CCN(c3cc(C(F)(F)F)ccn3)CC2)(C(C)C)C1	9.3	–	half-life [4]: 3.9 h; Kp (in vivo): 3; clearance [5]: 33.8 mL/min/kg
